Assay results published in patent publication US8952024B2, “Herbicidal pyrimidone derivatives” (E I du Pont de Nemours and Company, priority 2009, dated 2015).

Columns and labels:
Type in all cases: in vivo
[1] = system: Italian ryegrass (Lolium multiflorum); assay: Test B pre-/postemergence plant response
Method in brief: (§1)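 Greenhouse herbicide screen. Pre- and postemergence (1- to 4-leaf) spray of compound in solvent/surfactant mixture; loam–sand soil for pre, peat/vermiculite medium for post. Visual control rating 0–100 at 13 to 15 days after treatment.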

[2] = system: bermudagrass (Cynodon dactylon); assay: Test B pre-/postemergence plant response
Method in brief: as §1

[3] = system: blackgrass (Alopecurus myosuroides); assay: Test B pre-/postemergence plant response
Method in brief: as §1

corn (Zea mays) = assay: Test B pre-/postemergence plant response
Method in brief: as §1

[4] = system: downy bromegrass (Bromus tectorum); assay: Test B pre-/postemergence plant response
Method in brief: as §1

[5] = system: giant foxtail (Setaria faberii); assay: Test B pre-/postemergence plant response
Method in brief: as §1

[6] = system: goosegrass (Eleusine indica); assay: Test B pre-/postemergence plant response
Method in brief: as §1

[7] = system: green foxtail (Setaria viridis); assay: Test B pre-/postemergence plant response
Method in brief: as §1

[8] = system: johnsongrass (Sorghum halepense); assay: Test B pre-/postemergence plant response
Method in brief: as §1

[9] = system: morningglory (Ipomoea coccinea); assay: Test B pre-/postemergence plant response
Method in brief: as §1

[10] = system: pigweed (Amaranthus retroflexus); assay: Test B pre-/postemergence plant response
Method in brief: as §1

[11] = system: ragweed (common ragweed, Ambrosia elatior); assay: Test B pre-/postemergence plant response; settings: Preemergence
Method in brief: as §1

soybean (Glycine max) = assay: Test B pre-/postemergence plant response
Method in brief: as §1

[12] = system: velvetleaf (Abutilon theophrasti); assay: Test B pre-/postemergence plant response
Method in brief: as §1

[13] = system: wheat (Triticum aestivum); assay: Test B pre-/postemergence plant response
Method in brief: as §1

[14] = system: canarygrass (Phalaris minor); assay: Test B postemergence plant response; settings: Postemergence
Method in brief: (§2)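 Visual ratings from 0 (no effect) to 100 (complete control), made against controls 13–15 days after treatment, kept in a greenhouse. Compounds were applied postemergence to potted plants at the 1- to 4-leaf stage (2–18 cm).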

[15] = system: chickweed (Stellaria media); assay: Test B postemergence plant response; settings: Postemergence
Method in brief: as §2

[16] = system: winter barley (Hordeum vulgare); assay: Test B postemergence plant response; settings: Postemergence
Method in brief: as §2

[17] = Postemergence, 31 g ai/ha, 0 to 100 scale (0 no effect, 100 complete control)
[18] = Postemergence, 250 g ai/ha, scale 0 to 100 (0 no effect, 100 complete control), 13 to 15 days
[19] = Postemergence, 62 g ai/ha, scale 0 to 100 (0 no effect, 100 complete control)
[20] = Preemergence, 31 g ai/ha, scale 0 to 100 (0 no effect, 100 complete control)
[21] = Preemergence, 62 g ai/ha, scale 0 to 100, 0 no effect, 100 complete control
[22] = Preemergence, 125 g ai/ha, scale 0 to 100, 0 no effect, 100 complete control
[23] = Preemergence, 250 g ai/ha, 0 to 100 scale
[24] = Postemergence, 125 g ai/ha, scale 0 to 100 (0 no effect, 100 complete control)
[25] = 31 g ai/ha, 0 to 100 scale (0 no effect, 100 complete control)
[26] = 125 g ai/ha, scale 0 to 100 (0 no effect, 100 complete control)
[27] = 250 g ai/ha, scale 0 to 100 (0 no effect, 100 complete control), 13 to 15 days
[28] = 62 g ai/ha, scale 0 to 100 (0 no effect, 100 complete control)

CCCCn1c(C2CC2)ncc(C(=O)C2=C(O)CCCC2=O)c1=O [Compound 193]
65: Plant response rating, Foxtail, Giant [5, 21] | Plant response rating, Johnsongrass [8, 19] | Plant response rating, Morningglory [9, 24]
98: Bermudagrass plant response rating ([2]; Preemergence, 250 g ai/ha, 0 to 100 scale, 0 no effect, 100 complete control) | Plant response rating, Goosegrass [6, 24] | Plant response rating, Goosegrass [6, 20] | Foxtail, Green plant response rating [7, 23] | Plant response rating, Pigweed [10, 20] | Plant response rating, Soybean (soybean (Glycine max); [19]) | Plant response rating, Chickweed [15, 28]
100: Plant response rating, Bermudagrass [2, 24] | Plant response rating, Bermudagrass [2, 18] | Plant response rating, Bermudagrass [2, 19] | Plant response rating, Foxtail, Giant [5, 18] | Plant response rating, Goosegrass [6, 18] | Plant response rating, Goosegrass [6, 21] | Plant response rating, Goosegrass [6, 22] | Goosegrass plant response rating [6, 23] | Plant response rating, Pigweed [10, 18] | Plant response rating, Pigweed [10, 21] | Plant response rating, Pigweed [10, 22] | Pigweed plant response rating [10, 23] | Plant response rating, Ragweed ([11]; 31 g ai/ha, scale 0 to 100 (0 no effect, 100 complete control)) | Plant response rating, Ragweed ([11]; 62 g ai/ha, scale 0 to 100, 0 no effect, 100 complete control) | Plant response rating, Ragweed ([11]; 125 g ai/ha, scale 0 to 100, 0 no effect, 100 complete control) | Ragweed plant response rating ([11]; 250 g ai/ha, 0 to 100 scale) | Plant response rating, Soybean (soybean (Glycine max); [18]) | Plant response rating, Velvetleaf [12, 18] | Plant response rating, Velvetleaf [12, 19] | Plant response rating, Velvetleaf [12, 21] | Plant response rating, Velvetleaf [12, 22] | Velvetleaf plant response rating [12, 23] | Plant response rating, Chickweed [15, 26] | Plant response rating, Chickweed [15, 27]
80: Foxtail, Giant plant response rating [5, 23] | Plant response rating, Foxtail, Green [7, 18] | Plant response rating, Johnsongrass [8, 18] | Plant response rating, Soybean (soybean (Glycine max); [17]) | Soybean plant response rating (soybean (Glycine max); [23])
25: Plant response rating, Ryegrass, Italian [1, 22] | Wheat plant response rating [13, 23] | Plant response rating, Canarygrass [14, 26] | Plant response rating, Canarygrass [14, 27]
10: Plant response rating, Blackgrass [3, 17] | Plant response rating, Bromegrass, Downy [4, 17] | Plant response rating, Wheat [13, 22]
35: Plant response rating, Wheat [13, 19]
50: Bromegrass, Downy plant response rating [4, 23] | Plant response rating, Foxtail, Green [7, 19] | Plant response rating, Foxtail, Green [7, 21] | Plant response rating, Foxtail, Green [7, 22] | Plant response rating, Johnsongrass [8, 17] | Plant response rating, Barley [16, 26] | Plant response rating, Barley [16, 27]
85: Plant response rating, Bromegrass, Downy [4, 18] | Plant response rating, Foxtail, Giant [5, 19] | Plant response rating, Goosegrass [6, 17] | Plant response rating, Velvetleaf [12, 20]
15: Plant response rating, Blackgrass [3, 19] | Plant response rating, Corn (corn (Zea mays); [19]) | Plant response rating, Johnsongrass [8, 22]
75: Plant response rating, Bermudagrass [2, 20] | Plant response rating, Foxtail, Giant [5, 17] | Plant response rating, Morningglory [9, 20]
45: Plant response rating, Ryegrass, Italian [1, 18] | Ryegrass, Italian plant response rating [1, 23]
70: Blackgrass plant response rating [3, 23] | Plant response rating, Foxtail, Giant [5, 22] | Plant response rating, Johnsongrass [8, 24]
40: Plant response rating, Ryegrass, Italian [1, 19] | Plant response rating, Blackgrass [3, 24] | Plant response rating, Corn (corn (Zea mays); [24]) | Plant response rating, Bromegrass, Downy [4, 24] | Plant response rating, Foxtail, Green [7, 17] | Plant response rating, Morningglory [9, 17] | Plant response rating, Soybean (soybean (Glycine max); [20])
30: Plant response rating, Blackgrass [3, 22] | Plant response rating, Bromegrass, Downy [4, 19] | Plant response rating, Wheat [13, 17]
0: Plant response rating, Ryegrass, Italian [1, 20] | Plant response rating, Ryegrass, Italian [1, 21] | Plant response rating, Blackgrass [3, 20] | Plant response rating, Blackgrass [3, 21] | Plant response rating, Corn (corn (Zea mays); [17]) | Plant response rating, Corn (corn (Zea mays); [20]) | Plant response rating, Corn (corn (Zea mays); [21]) | Plant response rating, Bromegrass, Downy [4, 20] | Plant response rating, Foxtail, Giant [5, 20] | Plant response rating, Johnsongrass [8, 20] | Plant response rating, Johnsongrass [8, 21] | Plant response rating, Wheat [13, 20] | Plant response rating, Wheat [13, 21] | Plant response rating, Barley [16, 25] | Plant response rating, Barley [16, 28]
5: Plant response rating, Ryegrass, Italian [1, 17] | Plant response rating, Corn (corn (Zea mays); [22]) | Corn plant response rating (corn (Zea mays); [23]) | Plant response rating, Bromegrass, Downy [4, 21] | Plant response rating, Bromegrass, Downy [4, 22] | Plant response rating, Foxtail, Green [7, 20] | Plant response rating, Canarygrass [14, 25] | Plant response rating, Canarygrass [14, 28]
60: Plant response rating, Blackgrass [3, 18] | Plant response rating, Corn (corn (Zea mays); [18]) | Plant response rating, Foxtail, Green [7, 24] | Johnsongrass plant response rating [8, 23] | Plant response rating, Morningglory [9, 19] | Plant response rating, Soybean (soybean (Glycine max); [21]) | Plant response rating, Soybean (soybean (Glycine max); [22]) | Plant response rating, Wheat [13, 18]
95: Plant response rating, Bermudagrass [2, 17] | Plant response rating, Bermudagrass [2, 21] | Plant response rating, Bermudagrass [2, 22] | Plant response rating, Foxtail, Giant [5, 24] | Plant response rating, Goosegrass [6, 19] | Plant response rating, Morningglory [9, 22] | Morningglory plant response rating [9, 23] | Plant response rating, Pigweed [10, 19] | Plant response rating, Chickweed [15, 25]
90: Plant response rating, Morningglory [9, 18] | Plant response rating, Morningglory [9, 21] | Plant response rating, Pigweed [10, 17] | Plant response rating, Velvetleaf [12, 17]
